Data taken from patent publication US20160158317A1, “Antimicrobial Peptide Variants and Polynucleotides Encoding Same” (Adenium Biotech A/S, priority 2010, published 2016).
Where a SMILES comes first, the peptide text is derived from it. Bridges are numbered along the chain shown (N, C = ends).

Assay: Determination of the protein binding (90% serum, 30 kDa filter, HPLC)
Assay type: in vitro ADME
Details: serum
Experimental: Protein binding assays were performed as follows. The purified peptides were mixed with 90% serum and centrifuged through a 30 kDa filter. The ultra-filtrate and the non filtrated serum samples were quantified by HPLC measurements and the protein binding was subsequently calculated.

SMILES	fraction unbound
CC(C)[C@@H]1NC(=O)CNC(=O)[C@H](CC(N)=O)NC(=O)[C@H](CCCNC(=N)N)NC(=O)[C@H](Cc2ccc(O)cc2)NC(=O)[C@H](CO)NC(=O)[C@@H]2CSSC[C@H](NC(=O)[C@H](CCCCN)NC(=O)[C@H](CCCNC(=N)N)NC1=O)C(=O)N[C@@H](Cc1ccc(O)cc1)C(=O)N[C@@H](CCCNC(=N)N)C(=O)N[C@@H](CCCNC(=N)N)C(=O)N[C@H](C(=O)N[C@@H](CC(N)=O)C(=O)O)CSSC[C@H](NC(=O)[C@H](Cc1ccccc1)NC(=O)CN)C(=O)N[C@@H](Cc1c[nH]c3ccccc13)C(=O)N[C@@H](CCCNC(=N)N)C(=O)N[C@@H](C(C)C)C(=O)N2 [compound 331] (H-GFCWRVCSYRNGVRKCYRRCN-OH; disulfide 3-20, 7-16 (inferred); N-terminus and C-terminus assumed)	0.05
CC(C)[C@@H]1NC(=O)CNC(=O)[C@H](CC(N)=O)NC(=O)[C@H](CCCNC(=N)N)NC(=O)[C@H](CCCNC(=N)N)NC(=O)[C@H](C(C)C)NC(=O)[C@@H]2CSSC[C@H](NC(=O)[C@H](C(C)C)NC(=O)[C@H](CCCNC(=N)N)NC1=O)C(=O)N[C@@H](Cc1c[nH]cn1)C(=O)N[C@@H](CCCNC(=N)N)C(=O)N[C@@H](CCCNC(=N)N)C(=O)N[C@H](C(=O)N[C@@H](CC(N)=O)C(=O)O)CSSC[C@H](NC(=O)[C@H](Cc1ccccc1)NC(=O)CN)C(=O)N[C@@H](Cc1c[nH]c3ccccc13)C(=O)N[C@@H](CCCNC(=N)N)C(=O)N[C@@H](C(C)C)C(=O)N2 [compound 335] (H-GFCWRVCVRRNGVRVCHRRCN-OH; disulfide 3-20, 7-16 (inferred); N-terminus and C-terminus assumed)	0.05
CC(C)[C@@H]1NC(=O)[C@@H]2CSSC[C@H](NC(=O)[C@H](C)NC(=O)[C@H](CCCNC(=N)N)NC(=O)[C@H](CCCCN)NC(=O)CNC(=O)[C@H](CC(N)=O)NC(=O)[C@H](CCCNC(=N)N)NC(=O)[C@H](Cc3ccc(O)cc3)NC1=O)C(=O)N[C@@H](Cc1ccc(O)cc1)C(=O)N[C@@H](CCCNC(=N)N)C(=O)N[C@@H](CCCNC(=N)N)C(=O)N[C@H](C(=O)N[C@@H](CC(N)=O)C(=O)O)CSSC[C@H](NC(=O)[C@H](Cc1ccccc1)NC(=O)CN)C(=O)N[C@@H](Cc1c[nH]c3ccccc13)C(=O)N[C@@H](Cc1ccc(O)cc1)C(=O)N[C@@H](C)C(=O)N2 [compound 340] (H-GFCWYACVYRNGKRACYRRCN-OH; disulfide 3-20, 7-16 (inferred); N-terminus and C-terminus assumed)	0.02
CC(C)[C@@H]1NC(=O)CNC(=O)[C@H](CC(N)=O)NC(=O)[C@H](CCCNC(=N)N)NC(=O)[C@H](Cc2ccc(O)cc2)NC(=O)[C@H](C)NC(=O)[C@@H]2CSSC[C@H](NC(=O)[C@H](C)NC(=O)[C@H](CCCNC(=N)N)NC1=O)C(=O)N[C@@H](Cc1ccc(O)cc1)C(=O)N[C@@H](CCCNC(=N)N)C(=O)N[C@@H](CCCNC(=N)N)C(=O)N[C@H](C(=O)N[C@@H](CC(N)=O)C(=O)O)CSSC[C@H](NC(=O)[C@H](Cc1ccccc1)NC(=O)CN)C(=O)N[C@@H](Cc1c[nH]c3ccccc13)C(=O)N[C@@H](Cc1ccc(O)cc1)C(=O)N[C@@H](C)C(=O)N2 [compound 343] (H-GFCWYACAYRNGVRACYRRCN-OH; disulfide 3-20, 7-16 (inferred); N-terminus and C-terminus assumed)	0.26
CC(C)C[C@@H]1NC(=O)CNC(=O)[C@H](CC(N)=O)NC(=O)[C@H](CCCNC(=N)N)NC(=O)[C@H](CCCCN)NC(=O)[C@H](C(C)C)NC(=O)[C@@H]2CSSC[C@H](NC(=O)[C@H](C(C)C)NC(=O)[C@H](CCCNC(=N)N)NC1=O)C(=O)N[C@@H](Cc1ccc(O)cc1)C(=O)N[C@@H](CCCNC(=N)N)C(=O)N[C@@H](CCCNC(=N)N)C(=O)N[C@H](C(=O)N[C@@H](CC(N)=O)C(=O)O)CSSC[C@H](NC(=O)[C@H](Cc1ccccc1)NC(=O)CN)C(=O)N[C@@H](Cc1c[nH]c3ccccc13)C(=O)N[C@@H](Cc1ccc(O)cc1)C(=O)N[C@@H]([C@@H](C)O)C(=O)N2 [compound 346] (H-GFCWYTCVKRNGLRVCYRRCN-OH; disulfide 3-20, 7-16 (inferred); N-terminus and C-terminus assumed)	0.14
